Each structure is given as a SMILES string. Where a SMILES comes first, the peptide text is derived from it. [ ]: non-standard residue; d: D form. The star is where a group is joined. Dolaproine = CO[C@@H]([C@@H]1CCCN1)[C@@H](C)C(=O)O; Dil = CC[C@H](C)[C@H](NC)[C@@H](CC(=O)O)OC; X1 = C[C@@H](N*)[C@@H](O)c1ccccc1; NMeV = CN[C@H](C(=O)O)C(C)C

Series [1] can be described thus: Single dose pharmacokinetics, COLO357 tumor bearing mouse, IV. In kind it is in vivo. The method, then: The objective of this study was to evaluate serum, tumor and liver pharmacokinetics of TAB, CAB and uMMAE following 3 mg/kg single IV administration of M5LM4-ADC and pharmacokinetics of MMAE following 0.06 mg/kg single IV administration of MMAE alone in a COLO357 tumor bearing mouse model.
The blood samples were collected from the mouse at 0.083, 0.5, 1, 2, 4, 8, 24, 48, 72, 96, 168 and 336 hours post-dose (n=3 mice/time point; sparse sampling design) through retro-orbital plexuses and serum was immediately harvested. At 24, 48, 72, 96, 168 and 336 hour time-points, the tumor and liver were collected. Analysis of total antibody (TAB) and conjugated antibody (CAB) was done by a fit for purpose ELISA based method and analysis of free payload (MMAE) was done by a fit for purpose LC-MS/MS based method. Pharmacokinetic analysis was performed by the non-compartmental analysis tool of Phoenix WinNonlin® software.

In series [2] the test system is SKOV3 derived xenograft. To be noted: mouse, in vivo.
For series [3], the system named is BxPC3 pancreatic carcinoma cells. The experiment in a line: Growth inhibition of human cancer cell lines, BxPC3. Conditions: read-out: MMAE IC50; BxPC3, free MMAE.
The test system of series [4] is COLO-357 pancreatic carcinoma cells. The series can be described thus: Growth inhibition of human cancer cell lines, COLO-357. Conditions: read-out: MMAE IC50; COLO-357, free MMAE.
Series [5] deals with T47D breast carcinoma cells. The series can be described thus: Growth inhibition of human cancer cell lines, T47D. In kind it is cell-based. To be noted: free MMAE.
The subject of series [6] is MCF7 derived xenograft. To be noted: mouse, in vivo.
Setting [7] is: MMAE, MMAE 0.06 mg/kg IV, liver.
Where [8] appears, read: MMAE, MMAE 0.06 mg/kg IV, serum.
Where [9] appears, read: MMAE, MMAE 0.06 mg/kg IV, tumor.
[10] abbreviates: single IV MMAE, COLO357 tumor bearing mice.

In series [1] (setting [7]), `CC[C@H](C)[C@@H]([C@@H](CC(=O)N1CCC[C@H]1[C@H](OC)[C@@H](C)C(=O)N[C@H](C)[C@@H](O)c1ccccc1)OC)N(C)C(=O)[C@@H](NC(=O)[C@@H](NC)C(C)C)C(C)C` [Free MMAE, monomethyl auristatin E, reference compound] (H-[NMeV]V[Dil][Dolaproine]-X1) had an AUC0-336 of 0.19 µM·h, a Cmax of 1.5 nM and a T1/2 of 182 h. In series [1] (setting [8]), the AUC0-24 turned out to be 0.018 µM·h, the AUC0-336 was 0.021 µM·h, the AUCINF was found to be 0.021 µM·h and the CL is on record as 64 mL/min/kg. In addition, in series [1] (setting [8]), the Cmax turned out to be 8 nM, the T1/2 was 5 h, the Tmax amounted to 4.8 min and the Vss is given as 34 L/kg. Also, in series [1] (setting [9]), the AUC0-336 was determined as 1.391 µM·h, the “AUC ratio (Kp)” value was found to be 66, the highest level (Cmax) was 11 nM and the T1/2 is listed as 154 h. In series [1] (setting [10]), the “tumor exposure higher than in serum” value came to 66 fold and the “tumor exposure higher than in the liver” value stood at 7 fold. For the same molecule, in series [2], the mortality is 3 of 8 and the “tumor growth inhibition (TGI)” value was determined as 106±10%. For the same molecule, in series [3], the half-inhibitory concentration (IC50) is 0.02 nM. The IC50 in series [4] came to 0.16 nM. In series [5], this molecule displayed an IC50 of 0.07 nM. Besides, in series [6], the mortality is on record as 3 of 8.

The term Cmax denotes the maximum level reached in the sampled fluid or tissue. By Tmax is commonly meant the time from dosing to the highest level. What is called Vss is a proportionality between amount in the body and measured concentration, not a real space. Read a low Vss as little distribution into tissue. The term IC50 denotes the midpoint of a concentration-inhibition curve.

Source of the values: patent publication US20250041437A1, “HUMANIZED MUC1 ANTIBODY AND ANTIBODY DRUG CONJUGATE” (Sun Pharma Advanced Research Company Limited, priority 2023, published 2025).
